According to ChEMBL document CHEMBL1201862, “PubChem BioAssay data set” (2004):
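Exposure lasted 48 hours, with cells grown in 96-well plates and compounds tested at five concentrations. GI50: concentration for 50% inhibition of growth.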 Activity calls are given as the source filed them. Rule as the data show it: active = GI50 up to about 1.1 µM and inactive = higher.

Key:
Experiment in all cases: DTP human tumour cell line panel, 48 h
[1] = test system: SF-268
[2] = test system: SF-539
[3] = test system: SNB-75
[4] = test system: HCC 2998
[5] = test system: SW-620
[6] = test system: RPMI-8226
[7] = test system: HL-60
[8] = test system: CCRF-CEM
[9] = test system: LOX IMVI
[10] = test system: HCT-116
[11] = test system: NCI-H460
[12] = test system: SK-MEL-2
[13] = test system: HT-29
[14] = test system: SR
[15] = test system: HOP-92
[16] = test system: SK-OV-3
[17] = test system: A549
[18] = test system: KM12
[19] = test system: NCI-H522

Structure (SMILES) | GI50 [1] | GI50 [2] | GI50 [3] | GI50 [4] | GI50 [5] | GI50 [6] | GI50 [7] | GI50 [8] | GI50 [9] | GI50 [10] | GI50 [11] | GI50 [12] | GI50 [13] | GI50 [14] | GI50 [15] | GI50 [16] | GI50 [17] | GI50 [18] | GI50 [19]
Cc1cc2c(CC(=O)O)n[nH]c2c(C(=O)O)c1C | > 100 µM (inactive) | > 100 µM (inactive) | > 100 µM (inactive) | > 100 µM (inactive) | > 100 µM (inactive) | > 100 µM (inactive) | > 100 µM (inactive) | > 100 µM (inactive) | > 100 µM (inactive) | > 100 µM (inactive) | > 100 µM (inactive) | > 100 µM (inactive) | > 100 µM (inactive) | > 100 µM (inactive) | > 100 µM (inactive) | > 100 µM (inactive) | > 100 µM (inactive) |  | 
CCOc1ccc(N(CC(=O)N2CC(=O)Nc3cc(C)c(C)cc32)C(C)=O)cc1 | 87.5 µM (inactive) | > 100 µM (inactive) | > 100 µM (inactive) | > 100 µM (inactive) | > 100 µM (inactive) | > 100 µM (inactive) | > 100 µM (inactive) | > 100 µM (inactive) | > 100 µM (inactive) | > 100 µM (inactive) | > 100 µM (inactive) | > 100 µM (inactive) | > 100 µM (inactive) | > 100 µM (inactive) | 83.2 µM (inactive) | > 100 µM (inactive) | > 100 µM (inactive) | > 100 µM (inactive) | > 100 µM (inactive)
O=C1Sc2ccccc2C(=O)N2CSCC12 (stereo not drawn) | > 100 µM (inactive) | > 100 µM (inactive) | > 100 µM (inactive) | > 100 µM (inactive) | > 100 µM (inactive) | > 100 µM (inactive) | > 100 µM (inactive) | > 100 µM (inactive) | > 100 µM (inactive) | > 100 µM (inactive) | > 100 µM (inactive) | > 100 µM (inactive) | > 100 µM (inactive) | > 100 µM (inactive) | > 100 µM (inactive) | > 100 µM (inactive) | > 100 µM (inactive) | > 100 µM (inactive) | > 100 µM (inactive)
O=C1C2C(C(=O)N1Cc1ccccc1)N(Cc1ccccc1)C(=O)N2Cc1ccccc1 (stereo not drawn) | > 100 µM (inactive) | > 100 µM (inactive) | 59.3 µM (inactive) | > 100 µM (inactive) | > 100 µM (inactive) | > 100 µM (inactive) | > 100 µM (inactive) | > 100 µM (inactive) | > 100 µM (inactive) | > 100 µM (inactive) | > 100 µM (inactive) |  | > 100 µM (inactive) | > 100 µM (inactive) | > 100 µM (inactive) | > 100 µM (inactive) | > 100 µM (inactive) | > 100 µM (inactive) | > 100 µM (inactive)
CCc1cccc(C)c1NC(=O)CCc1nnc(SC)o1 | > 100 µM (inactive) | > 100 µM (inactive) | > 79.4 µM (inactive) | > 100 µM (inactive) | > 100 µM (inactive) | > 100 µM (inactive) | > 100 µM (inactive) | > 100 µM (inactive) | > 100 µM (inactive) | > 100 µM (inactive) | > 100 µM (inactive) | > 100 µM (inactive) | > 100 µM (inactive) | 0.622 µM (active) | > 100 µM (inactive) | > 100 µM (inactive) | > 100 µM (inactive) | > 100 µM (inactive) | > 100 µM (inactive)
COc1ccc(C2(CN(C)C)COc3cc(OC)c(OC)cc3C2=O)cc1OC (stereo not drawn) | > 100 µM (inactive) | 39.9 µM (inactive) | 47 µM (inactive) | > 100 µM (inactive) | 21.6 µM (inactive) | 23.5 µM (inactive) | 16.6 µM (inactive) | 19.6 µM (inactive) | 16.6 µM (inactive) | 16.3 µM (inactive) | 33.9 µM (inactive) |  | 46.7 µM (inactive) | 30.6 µM (inactive) | 79.3 µM (inactive) | > 100 µM (inactive) | 69.8 µM (inactive) | 61.5 µM (inactive) | 59.6 µM (inactive)
Nc1cccc2c1-c1c(cccc1[N+](=O)[O-])C2=O | > 100 µM (inactive) | > 100 µM (inactive) | > 100 µM (inactive) | > 100 µM (inactive) | > 100 µM (inactive) | > 100 µM (inactive) | > 100 µM (inactive) | > 100 µM (inactive) | > 100 µM (inactive) | > 100 µM (inactive) | > 100 µM (inactive) |  | > 100 µM (inactive) | > 100 µM (inactive) | > 100 µM (inactive) | > 100 µM (inactive) | > 100 µM (inactive) | > 100 µM (inactive) | > 100 µM (inactive)
